pEC50: −log10 of the molar value.
The compounds below were run on 3D7 P. falciparum strain (assay: parasite proliferation assay in infected red blood cells (SYBR Green I)). Settings: 3D7 strain; read-out: EC50 3D7 strain.
Assay type: cell-based, Plasmodium falciparum
Source text: (§1) Compounds of the invention can be assayed to measure their capacity to inhibit proliferation of parasitemia in infected red blood cells. The proliferation is quantified by the addition of SYBR Green I (INVITROGEN)® dye which has a high affinity for double stranded DNA.
The following assay illustrates the invention without in any way limiting the scope of the invention. This parasite proliferation assay measures the increase in parasite DNA content using a DNA intercalating dye, SYBR Green®.
3D7 P. falciparum strain is grown in complete culturing media until parasitemia reaches 3% to 8% with O+ human erythrocytes. 20 μl of screening media is dispensed into 384 well assay plates. […] 10 μl of lysis buffer (saponin, triton-X, EDTA) containing a 10× solution of SYBR Green I® in RPMI media is dispensed into the plates. The plates are lidded and kept at room temperature overnight for the lysis of the infected red blood cells.
For `Cc1ccc(Nc2c(-c3ccc(F)cc3)nc3n2CCN(C(=O)C2CCNC2)C3)cc1` (stereo not drawn) [Compound 95], the pEC50 was 5.81.

Same assay, conditions: Plasmodium falciparum, 3D7, Erythrocyte, 3D7 strain; read-out: EC50 3D7 strain
Compound `CC(C)(C)OC(=O)N[C@@H](CC(=O)OCc1ccccc1)C(=O)N1CCn2c(nc(-c3cccc(F)c3)c2Nc2ccc(F)cc2)C1` [Compound 237] has a pEC50 of 5.14.
`CC(C)(C)CC(C)(C)Nc1c(C2CCCCC2)nc2ccccn12` [Compound 738] showed a pEC50 of 5.49.
Work on `O=C(COc1ccccc1)N1CCn2c(nc(-c3ccc(F)cc3)c2Nc2ccc(Cl)c(F)c2)C1` [Compound 336] yielded a pEC50 of 7.40.
Work on `COCCNCC(=O)N1CCn2c(nc(-c3ccc(F)cc3)c2Nc2ccc(C)cc2)C1` [Compound 309] yielded a pEC50 of 7.10.
For `Cc1ccc(Nc2c(-c3ccc(F)cc3)nc3n2CCN(C(=O)C(Oc2ccccc2C)C(C)C)C3)cc1` (stereo not drawn) [Compound 208], the pEC50 was 5.23.
Compound `Cc1ccc(Nc2c(-c3ccc(F)cc3)nc3n2CCN(C(=O)[C@H]2CCC[C@H]2N)C3)cc1` [Compound 193] has a pEC50 of 7.05.
Work on `Cc1ccc(Nc2c(-c3ccc(F)cc3)nc3n2CCN(C(=O)C(O)c2ccc(Br)cc2)C3)cc1` (stereo not drawn) [Compound 126] yielded a pEC50 of 7.00.
`NCC(=O)N1CCn2c(nc(-c3cccc(F)c3)c2Nc2ccc(F)cc2)C1` [Compound 56] was tested, and the pEC50 was 8.00.
For `CC(C)(N)C(=O)N1CCn2c(nc(-c3ccc(F)cc3)c2NCc2ccccc2)C1` [Compound 23], the pEC50 was < 4.98.
For `CC1(C)c2nc(-c3ccc(F)cc3)c(-c3ccc(F)c(Cl)c3)n2CCN1C(=O)CN` [Compound 706], the pEC50 was 6.60.
`Cc1ccc(Nc2c(-c3ccc(F)cc3)nc3n2CCN(C(=O)CC(C)O)C3)cc1` (stereo not drawn) [Compound 108] showed a pEC50 of 6.02.
In the case of `Cc1ccc(Nc2c(-c3ccc(F)cc3)nc3n2CCN(C(=O)[C@H](O)Cc2ccccc2)C3)cc1` [Compound 109], the pEC50 was 7.40.
`Cc1ccc(Nc2c(-c3ccc(F)cc3)nc3n2CCN(C(=O)C(C)(O)c2ccccc2)C3)cc1` (stereo not drawn) [Compound 111] gave a pEC50 of 7.70.
In the case of `CN(c1ccc(Cl)c(F)c1)c1c(-c2ccc(F)cc2)nc2n1CCN(C(=O)CN)C2` [Compound 293], the pEC50 was 7.70.
`O=C(C1NCc2ccccc21)N1CCn2c(nc(-c3ccc(F)cc3)c2Nc2ccc(Cl)c(F)c2)C1` (stereo not drawn) [Compound 342] gave a pEC50 of 5.28.
`O=C(Cc1ccccc1OC(F)(F)F)N1CCn2c(nc(-c3ccc(F)cc3)c2Nc2ccc(Cl)c(F)c2)C1` [Compound 333] showed a pEC50 of 5.95.
Work on `O=C([C@H]1Cc2ccccc2CN1)N1CCn2c(nc(-c3ccc(F)cc3)c2Nc2ccc(Cl)c(F)c2)C1` [Compound 347] yielded a pEC50 of 5.23.
`NCC(=O)N1CCn2c(nc(-c3ccc(F)cc3)c2Nc2ccc(F)c(Cl)c2)C1` [Compound 78] was tested, and the pEC50 was 8.00.
In the case of `N[C@H](CC(=O)N1CCn2c(nc(-c3ccc(F)cc3)c2Nc2ccc(Cl)c(F)c2)C1)Cc1ccc(Br)cc1` [Compound 344], the pEC50 was 6.68.
Work on `O=C([C@H]1CCCN1)N1CCn2c(nc(-c3ccc(F)cc3)c2Nc2ccc(Cl)c(F)c2)C1` [Compound 340] yielded a pEC50 of 6.70.
With `CC[C@H](C)[C@H](N)C(=O)N1CCn2c(nc(-c3ccc(F)cc3)c2Nc2ccc(Cl)c(F)c2)C1` [Compound 317] the pEC50 was 7.70.
Work on `CCCCC(=O)OC(C(=O)N1CCn2c(nc(-c3ccc(F)cc3)c2Nc2ccc(C)cc2)C1)c1ccccc1` (stereo not drawn) [Compound 270] yielded a pEC50 of 7.30.
`CC(C)(N)C(=O)N1CCn2c(nc(-c3cccc(F)c3)c2Nc2ccc(F)c(C#N)c2)C1` [Compound 353] showed a pEC50 of 6.68.
In the case of `CC(C)C[C@H](N)C(=O)N1CCn2c(nc(-c3ccc(F)cc3)c2Nc2ccc(Cl)c(F)c2)C1` [Compound 322], the pEC50 was 7.40.
For `O=C(C(Nc1ccccc1)c1ccccc1)N1CCn2c(nc(-c3ccc(F)cc3)c2Nc2ccc(Cl)c(F)c2)C1` (stereo not drawn) [Compound 332], the pEC50 was 5.98.
Work on `O=C(Cc1ccc(F)c(C(F)(F)F)c1)N1CCn2c(nc(-c3ccc(F)cc3)c2Nc2ccc(Cl)c(F)c2)C1` [Compound 335] yielded a pEC50 of 5.64.
For `NC(CC(=O)N1CCn2c(nc(-c3ccc(F)cc3)c2Nc2ccc(Cl)c(F)c2)C1)C(F)(F)F` (stereo not drawn) [Compound 339], the pEC50 was 6.28.
With `O=C([C@@H]1Cc2ccccc2N1)N1CCn2c(nc(-c3ccc(F)cc3)c2Nc2ccc(Cl)c(F)c2)C1` [Compound 343] the pEC50 was 5.12.
`N[C@@H](CC1CC1)C(=O)N1CCn2c(nc(-c3ccc(F)cc3)c2Nc2ccc(F)cc2)C1` [Compound 466] showed a pEC50 of 7.52.
In the case of `NC(CC(F)(F)F)C(=O)N1CCn2c(nc(-c3ccc(F)cc3)c2Nc2ccc(Cl)c(F)c2)C1` (stereo not drawn) [Compound 348], the pEC50 was 7.30.
`O=C1CC(C(=O)N2CCn3c(nc(-c4ccc(F)cc4)c3Nc3ccc(Cl)c(F)c3)C2)CCN1` (stereo not drawn) [Compound 337] was tested, and the pEC50 was < 5.00.
`Cc1ccc(Nc2c(-c3ccc(F)cc3)nc3n2CCN(C(=O)C(O)c2ccc(O)cc2)C3)cc1` (stereo not drawn) [Compound 130] showed a pEC50 of 8.00.
`CO[C@@H](C)C(=O)N1CCn2c(nc(-c3ccc(F)cc3)c2Nc2ccc(C)cc2)C1` [Compound 198] was tested, and the pEC50 was 5.87.
With `Cc1ccc(Nc2c(-c3ccc(F)cc3)nc3n2CCN(C(=O)C(O)c2cc(F)cc(F)c2)C3)cc1` (stereo not drawn) [Compound 123] the pEC50 was 7.52.
With `Cc1ccc([S+]([O-])c2c(-c3ccc(F)cc3)nc3n2CCN(C(=O)CN)C3(C)C)cc1` (stereo not drawn) [Compound 721, 2-amino-1-(2-(4-fluorophenyl)-8,8-dimethyl-3-(p-tolylsulfinyl)-5,6-dihydroimidazo[1,2-a]pyrazin-7 (8H)-yl)ethanone] the pEC50 was 7.38.
`CC(C)(N)C(=O)N1CCn2c(nc(-c3ccc(F)cc3)c2Nc2ccc(F)c(Cl)c2)C1` [Compound 492] gave a pEC50 of 7.30.
`CCOCC(=O)N1CCn2c(nc(-c3ccc(F)cc3)c2Nc2ccc(C)cc2)C1` [Compound 350] showed a pEC50 of 6.18.
`CCCCOCCOCC(=O)N1CCn2c(nc(-c3ccc(F)cc3)c2Nc2ccc(C)cc2)C1` [Compound 349] gave a pEC50 of 5.13.
`Cc1ccc(Nc2c(-c3ccc(F)cc3)nc3n2CCN(C(=O)[C@@H](N)C(C)C)C3)cc1` [Compound 169] was tested, and the pEC50 was 7.40.
Work on `CC[C@H](N)C(=O)N1CCn2c(nc(-c3ccc(F)cc3)c2Nc2ccc(Cl)c(F)c2)C1` [Compound 393] yielded a pEC50 of 7.70.
`Cc1ccc(Sc2c(-c3ccc(F)cc3)nc3n2CCN(C(=O)CN)C3(C)C)cc1` [Compound 713, 2-amino-1-(2-(4-fluorophenyl)-8,8-dimethyl-3-(p-tolylthio)-5,6-dihydroimidazo[1,2-a]pyrazin-7(8H)-yl)ethanone] gave a pEC50 of 8.10.
In the case of `Cc1ccc(Nc2c(-c3ccc(F)cc3)nc3n2CCN(C(=O)[C@H]2CCC[C@@H]2O)C3)cc1` [Compound 105], the pEC50 was 6.07.
With `O=C(CN1CCC(C(F)(F)F)CC1)N1CCn2c(nc(-c3ccc(F)cc3)c2Nc2ccc(F)cc2)C1` [Compound 61] the pEC50 was 5.03.
Work on `Fc1ccc(-c2nc3n(c2Nc2ccc(F)c(Cl)c2)CCNC3)cc1` [Compound 447] yielded a pEC50 of 6.64.
Compound `Cc1ccc(Nc2c(-c3cc(F)ccc3F)nc3n2CCNC3)cc1` [Compound 330] has a pEC50 of 5.35.
With `Cc1ccc(Nc2c(-c3ccc(F)cc3)nc3n2CCN(C(=O)CCO)C3)cc1` [Compound 103] the pEC50 was 5.99.
`O=C([C@@H](O)Cc1ccccc1)N1CCn2c(nc(-c3ccc(F)cc3)c2Nc2ccc(Cl)c(F)c2)C1` [Compound 334] was tested, and the pEC50 was 7.30.
For `Cc1ccc(Nc2c(-c3ccc(F)cc3)nc3n2CCN(C(=O)C(C)(C)C(O)c2ccc(C)cc2)C3)cc1` (stereo not drawn) [Compound 119], the pEC50 was 5.32.
For `Cc1ccc(Nc2c(-c3ccc(F)cc3)nc3n2CC(C)N(C(=O)CN)C3)cc1` (stereo not drawn) [Compound 352], the pEC50 was 8.00.
For `Fc1ccc(-c2nc3n(c2Nc2ccc(F)c(F)c2)CCNC3)cc1` [Compound 331, N-(3,4-difluorophenyl)-2-(4-fluorophenyl)-5,6,7,8-tetrahydroimidazo[1,2-a]pyrazin-3-amine], the pEC50 was 6.85.
For `NC(C(=O)N1CCn2c(nc(-c3ccc(F)cc3)c2Nc2ccc(Cl)c(F)c2)C1)C(F)(F)F` (stereo not drawn) [Compound 194], the pEC50 was 7.30.
`COc1ccc(CSC[C@@H](N)C(=O)N2CCn3c(nc(-c4ccc(F)cc4)c3Nc3ccc(Cl)c(F)c3)C2)cc1` [Compound 346] was tested, and the pEC50 was < 5.06.
`COCCOCC(=O)N1CCn2c(nc(-c3ccc(F)cc3)c2Nc2ccc(C)cc2)C1` [Compound 351] showed a pEC50 of 5.91.
Compound `Cc1ccc(Nc2c(-c3ccc(F)cc3)nc3n2CCN(C(=O)C2CCCO2)C3)cc1` (stereo not drawn) [Compound 200] has a pEC50 of 6.04.
For `O=C([C@@H]1CCCN1)N1CCn2c(nc(-c3ccc(F)cc3)c2Nc2ccc(Cl)c(F)c2)C1` [Compound 338], the pEC50 was 6.72.
Work on `Cc1ccc(C[C@H](N)C(=O)N2CCn3c(nc(-c4ccc(F)cc4)c3Nc3ccc(Cl)c(F)c3)C2)cc1` [Compound 341] yielded a pEC50 of 8.00.

Same assay, conditions: Plasmodium falciparum, 3D7, Erythrocyte, read-out: EC50 3D7 strain
`Cc1ccc(Nc2c(-c3ccc(F)cc3)nc3n2CCN(C(=O)C(O)(c2ccccc2)c2ccccc2)C3)cc1` [Compound 112] gave a pEC50 of 5.84.

Each compound was assayed on W2 strain (assay: parasite proliferation assay in infected red blood cells (SYBR Green I), W2 strain). Settings: not given.
Assay type: cell-based
Source text: as §1
`Cc1ccc(Nc2c(-c3ccc(F)cc3)nc3n2CCN(C(=O)C2CCNC2)C3)cc1` (stereo not drawn) [Compound 95] was tested, and the pEC50 was 6.15.

Same assay, conditions: Erythrocyte
`CC(C)(C)OC(=O)N[C@@H](CC(=O)OCc1ccccc1)C(=O)N1CCn2c(nc(-c3cccc(F)c3)c2Nc2ccc(F)cc2)C1` [Compound 237] was tested, and the pEC50 was 5.24.
`COCCNCC(=O)N1CCn2c(nc(-c3ccc(F)cc3)c2Nc2ccc(C)cc2)C1` [Compound 309] was tested, and the pEC50 was 7.17.
Work on `Cc1ccc(Nc2c(-c3ccc(F)cc3)nc3n2CCN(C(=O)C(Oc2ccccc2C)C(C)C)C3)cc1` (stereo not drawn) [Compound 208] yielded a pEC50 of 5.98.
`Cc1ccc(Nc2c(-c3ccc(F)cc3)nc3n2CCN(C(=O)[C@H]2CCC[C@H]2N)C3)cc1` [Compound 193] gave a pEC50 of 7.12.
With `Cc1ccc(Nc2c(-c3ccc(F)cc3)nc3n2CCN(C(=O)C(O)c2ccc(Br)cc2)C3)cc1` (stereo not drawn) [Compound 126] the pEC50 was 7.10.
With `NCC(=O)N1CCn2c(nc(-c3cccc(F)c3)c2Nc2ccc(F)cc2)C1` [Compound 56] the pEC50 was 7.89.
Work on `CC(C)(N)C(=O)N1CCn2c(nc(-c3ccc(F)cc3)c2NCc2ccccc2)C1` [Compound 23] yielded a pEC50 of 4.98.
`Cc1ccc(Nc2c(-c3ccc(F)cc3)nc3n2CCN(C(=O)[C@H](O)C(C)C)C3)cc1` [Compound 205] showed a pEC50 of 8.40.
`Cc1ccc(Nc2c(-c3ccc(F)cc3)nc3n2CCN(C(=O)C(O)c2ccccc2)C3)cc1` (stereo not drawn) [Compound 82] gave a pEC50 of 8.15.
For `Cc1ccc(Nc2c(-c3ccc(F)cc3)nc3n2CCN(C(=O)[C@@H](O)Cc2ccccc2)C3)cc1` [Compound 106], the pEC50 was 8.40.
`CN[C@H](CC(C)C)C(=O)N1CCn2c(nc(-c3ccc(F)cc3)c2Nc2ccc(C)cc2)C1` [Compound 377] gave a pEC50 of 6.24.

Same assay, conditions: Plasmodium falciparum, Erythrocyte
For `CC(C)(C)CC(C)(C)Nc1c(C2CCCCC2)nc2ccccn12` [Compound 738], the pEC50 was 5.81.
For `CC1(C)c2nc(-c3ccc(F)cc3)c(-c3ccc(F)c(Cl)c3)n2CCN1C(=O)CN` [Compound 706], the pEC50 was 6.63.

From patent publication US9469645B2, “Compounds and compositions for the treatment of parasitic diseases” (Novartis AG, priority 2009, dated 2016)
